ChEMBL document CHEMBL1153815, “Mapping the ribonucleolytic active site of bovine seminal ribonuclease. The binding of pyrimidinyl phosphonucleotide inhibitors” (Eur J Med Chem, 2009)
Active and inactive are the calls of the source. The rule behind the calls is not given here.

Columns and labels:
[1] = molecular target: T1, Ribonuclease pancreatic (Bos taurus, UniProt P61823); test: Inhibition of bovine pancreatic ribonuclease A assessed as enzyme activity by spectrophotometric method pH 6
T1 sequence (P61823 whole entry): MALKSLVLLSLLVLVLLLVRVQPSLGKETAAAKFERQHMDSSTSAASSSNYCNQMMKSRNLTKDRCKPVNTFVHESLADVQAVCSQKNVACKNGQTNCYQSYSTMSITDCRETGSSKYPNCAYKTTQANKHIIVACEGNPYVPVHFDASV

[2] = tested on: Mus musculus; test: Inhibition of aspermatogenic activity of bovine seminal ribonuclease in mouse ICR assessed as diameter of somniferous tubule at 1:100 ratio of BS-Rnase+compound after 10 days administered once into left testes; assay type: functional, organism-based
[3] = tested on: Mus musculus; test: Inhibition of aspermatogenic activity of bovine seminal ribonuclease in mouse ICR assessed as diameter of somniferous tubule at 1:1 ratio of BS-Rnase+compound after 10 days administered once into left testes; assay type: functional, organism-based
[4] = tested on: Mus musculus; test: Inhibition of aspermatogenic activity of bovine seminal ribonuclease in mouse ICR assessed as width of spermatogenic layer at 1:100 ratio of BS-Rnase+compound after 10 days administered once into left testes; assay type: functional, organism-based
[5] = tested on: Mus musculus; test: Inhibition of aspermatogenic activity of bovine seminal ribonuclease in mouse ICR assessed as width of spermatogenic layer at 1:1 ratio of BS-Rnase+compound after 10 days administered once into left testes; assay type: functional, organism-based
[6] = tested on: Mus musculus; test: Inhibition of aspermatogenic activity of bovine seminal ribonuclease in mouse ICR assessed as weight of the testes at 1:1 ratio of BS-Rnase+compound after 10 days administered once into left testes; assay type: functional, organism-based; conditions: Testis
[7] = tested on: Mus musculus; test: Inhibition of aspermatogenic activity of bovine seminal ribonuclease in mouse ICR assessed as weight of the testes at 1:100 ratio of BS-Rnase+compound after 10 days administered once into left testes; assay type: functional, organism-based; conditions: Testis
[8] = molecular target: T2, Seminal ribonuclease (Bos taurus, UniProt P00669); test: Inhibition of bovine seminal ribonuclease assessed as enzyme activity by spectrophotometric method at pH 6
T2 sequence (P00669 whole entry): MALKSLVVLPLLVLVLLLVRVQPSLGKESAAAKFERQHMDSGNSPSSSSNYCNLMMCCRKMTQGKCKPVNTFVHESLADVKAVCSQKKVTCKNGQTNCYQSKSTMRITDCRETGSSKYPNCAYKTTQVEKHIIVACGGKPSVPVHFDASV

[9] = tested on: Mus musculus; test: Inhibition of aspermatogenic activity of bovine […] assessed as width of spermatogenic layer at 1:100 ratio of BS-Rnase+compound after 10 days administered once into left testes; assay type: functional, organism-based
[10] = tested on: Mus musculus; test: Inhibition of aspermatogenic activity of bovine […] assessed as weight of the testes at 1:1 ratio of BS-Rnase+compound after 10 days administered once into left testes; assay type: functional, organism-based; conditions: Testis
[11] = tested on: Mus musculus; test: Inhibition of aspermatogenic activity of bovine […] assessed as diameter of somniferous tubule at 1:100 ratio of BS-Rnase+compound after 10 days administered once into left testes; assay type: functional, organism-based

Work on `O=c1ccn([C@@H]2O[C@H](CO)[C@@H](OP(=O)(O)O)[C@H]2O)c(=O)[nH]1` yielded a Ki [1] of 78.5 µM.

`Nc1ccn([C@@H]2O[C@H](CO)[C@@H](OP(=O)(O)O)[C@H]2O)c(=O)n1` was tested, and the Activity [2] was “inactive”, the Activity [3] was “Active” and the Ki [1] was 20.1 µM. For the same molecule, the Activity [4] was “inactive”, the Activity [5] was “Active” and the Activity [6] was “Active”. The Activity [7] was “inactive”.

In the case of `Nc1ccn([C@@H]2O[C@H](COP(=O)(O)O)[C@@H](O)[C@H]2O)c(=O)n1`, the Activity [2] is reported as “inactive”, the Ki [8] is reported as 1560 µM and the Activity [9] is reported as “Active”. The Ki [1] was 844 µM, the Activity [10] was “Active” and the Activity [11] was “Active”. The Activity [4] was “inactive” and the Activity [7] was “inactive”.

`O=c1ccn([C@@H]2O[C@H](COP(=O)(O)OP(=O)(O)O)[C@@H](O)[C@H]2O)c(=O)[nH]1` [URIDINE_DIPHOSPHATE] gave a Ki [1] of 647 µM.

Molecule `O=c1ccn([C@@H]2O[C@H](CO)[C@@H](O)[C@H]2OP(=O)(O)O)c(=O)[nH]1` has a Ki [1] of 11.6 µM.
